Data taken from the supplement of paper PMC6045584.
± gives the standard deviation of the averaged measurements.

Compound: C=CCNC1=C2C[C@@H](C)C[C@H](OC)[C@H](O)[C@@H](C)/C=C(\C)[C@H](OC(N)=O)[C@@H](OC)/C=C\C=C(/C)C(=O)NC(=CC1=O)C2=O [17-AAG]
Test: surviving fraction relative to DMSO-only wells; higher = less growth inhibition
Conditions: 0.5 nM; exposure time: 5 days
Outline: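 Inhibitors at 0.5, 1, 5, 10, 50, 100, 500 and 1000 nM were applied continuously for five days to tumour cell lines seeded in log phase at 250–500 cells per well in 384-well plates 24 hours earlier. Viability was measured by CellTiter-Glo luminescence and expressed as surviving fraction relative to the median of DMSO-only wells. Luminescence was taken after 10 minutes at room temperature.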

Row | Test System | surviving fraction
1 | SCC36 HEADNECK | 0.696 ± 0.065
2 | OS25HAL BONE | 0.9 ± 0.024
3 | HCC1806 BREAST | 0.78 ± 0.076
4 | HU09 BONE | 0.918 ± 0.045
5 | SG43 HEADNECK | 1.1 ± 0.2
6 | U2OS BONE | 0.943 ± 0.049
7 | HOSMNG BONE | 0.981 ± 0.039
8 | CASKI CERVIX | 0.745 ± 0.065
9 | SUM44 BREAST | 0.897 ± 0.02
10 | MDAMB231 BREAST | 0.95 ± 0.019
11 | CAL51 BREAST | 0.966 ± 0.047
12 | MDAMB436 BREAST | 0.801 ± 0.045
13 | HSSYII SYNOVIAL | 0.869 ± 0.049
14 | RDES SOFT TISSUE | 0.776 ± 0.22
15 | MDAMB157 BREAST | 0.897 ± 0.082
16 | CHLA90 AUTONOMIC GANGLIA | 0.927 ± 0.033
17 | CADOES1 SOFT TISSUE | 0.884 ± 0.093
18 | SG31 HEADNECK | 0.87 ± 0.024
19 | SCC47 HEADNECK | 0.908 ± 0.024
20 | S68 BREAST | 0.8 ± 0.19
21 | SNU475 LIVER | 0.864 ± 0.017

Row | Test System | surviving fraction
22 | 22RV1 PROSTATE | 0.906 ± 0.038
23 | SG32 HEADNECK | 0.955 ± 0.12
24 | SCC003 HEADNECK | 0.839 ± 0.058
25 | JURKAT HAEMATOPOIETIC AND LYMPHOID TISSUE | 1.02 ± 0.014
26 | HT1080 SOFT TISSUE | 0.969 ± 0.031
27 | CAL120 BREAST | 0.87 ± 0.04
28 | MCF7 BREAST | 0.842 ± 0.015
29 | MFM223 BREAST | 0.757 ± 0.067
30 | LNCAP PROSTATE | 1.15 ± 0.1
31 | PCI30 HEADNECK | 0.915 ± 0.067
32 | OSHN BONE | 0.9227 ± 0.006
33 | SG28 HEADNECK | 0.93 ± 0.048
34 | HOS BONE | 0.924 ± 0.029
35 | HUO3N1 BONE | 0.881 ± 0.025
36 | BT20 BREAST | 0.804 ± 0.1
37 | SJSA1 BONE | 0.84 ± 0.049
38 | JIMT1 BREAST | 0.833 ± 0.034
39 | HCC78 LUNG | 0.814 ± 0.2
40 | NY BONE | 0.9133 ± 0.0047
41 | NOS1 BONE | 0.804 ± 0.1

Same assay, conditions: 1 nM; exposure time: 5 days

Row | Test System | surviving fraction
42 | SCC36 HEADNECK | 0.767 ± 0.036
43 | OS25HAL BONE | 0.897 ± 0.041
44 | HCC1806 BREAST | 0.783 ± 0.065
45 | HU09 BONE | 0.935 ± 0.14
46 | SG43 HEADNECK | 1.1 ± 0.22
47 | U2OS BONE | 0.9303 ± 0.0058
48 | HOSMNG BONE | 0.977 ± 0.072
49 | CASKI CERVIX | 0.787 ± 0.04
50 | SUM44 BREAST | 0.863 ± 0.051
51 | MDAMB231 BREAST | 0.943 ± 0.03
52 | CAL51 BREAST | 0.886 ± 0.052
53 | MDAMB436 BREAST | 0.797 ± 0.073
54 | HSSYII SYNOVIAL | 0.812 ± 0.035
55 | RDES SOFT TISSUE | 0.784 ± 0.055
56 | MDAMB157 BREAST | 0.854 ± 0.053
57 | CHLA90 AUTONOMIC GANGLIA | 0.941 ± 0.023
58 | CADOES1 SOFT TISSUE | 1.01 ± 0.07
59 | SG31 HEADNECK | 0.911 ± 0.052
60 | SCC47 HEADNECK | 0.925 ± 0.028
61 | S68 BREAST | 0.706 ± 0.12
62 | SNU475 LIVER | 0.884 ± 0.013

Row | Test System | surviving fraction
63 | 22RV1 PROSTATE | 0.989 ± 0.043
64 | SG32 HEADNECK | 0.834 ± 0.19
65 | SCC003 HEADNECK | 0.89 ± 0.024
66 | JURKAT HAEMATOPOIETIC AND LYMPHOID TISSUE | 0.997 ± 0.037
67 | HT1080 SOFT TISSUE | 1 ± 0.061
68 | CAL120 BREAST | 0.861 ± 0.032
69 | MCF7 BREAST | 0.817 ± 0.027
70 | MFM223 BREAST | 0.749 ± 0.036
71 | LNCAP PROSTATE | 1.14 ± 0.025
72 | PCI30 HEADNECK | 0.972 ± 0.059
73 | OSHN BONE | 0.923 ± 0.011
74 | SG28 HEADNECK | 0.918 ± 0.069
75 | HOS BONE | 0.932 ± 0.037
76 | HUO3N1 BONE | 0.888 ± 0.042
77 | BT20 BREAST | 0.793 ± 0.054
78 | SJSA1 BONE | 0.865 ± 0.064
79 | JIMT1 BREAST | 0.823 ± 0.062
80 | HCC78 LUNG | 0.832 ± 0.067
81 | NY BONE | 0.924 ± 0.024
82 | NOS1 BONE | 0.831 ± 0.081
